In the NIST ThermoML archive (doi:10.1016/j.jct.2013.09.035):

Conditions: Liquid, Vibrating tube method

FCC(F)(F)F [1,1,1,2-tetrafluoroethane]
Conditions	mass density [kg/m3]
283.25 K, 60000 kPa	1416.44
283.26 K, 1000 kPa	1265.88
283.26 K, 5000 kPa	1282.35
283.26 K, 10000 kPa	1300.86
283.26 K, 20000 kPa	1331.64
283.26 K, 40000 kPa	1379.61
283.26 K, 80000 kPa	1446.35
302.84 K, 20000 kPa	1276.99
302.84 K, 40000 kPa	1333.11
302.84 K, 80000 kPa	1408.64
302.85 K, 1000 kPa	1190.34
302.85 K, 5000 kPa	1214.03
302.85 K, 10000 kPa	1238.45
302.85 K, 60000 kPa	1374.79
322.62 K, 5000 kPa	1140.59
322.63 K, 10000 kPa	1174.6
322.63 K, 20000 kPa	1224.02
322.64 K, 40000 kPa	1290.68
322.64 K, 60000 kPa	1338.04
322.64 K, 80000 kPa	1375.39
342.56 K, 5000 kPa	1047.23
342.56 K, 10000 kPa	1098.48
342.56 K, 20000 kPa	1163.35
342.56 K, 40000 kPa	1242.84
342.57 K, 60000 kPa	1296.48
342.57 K, 80000 kPa	1337.6
362.57 K, 5000 kPa	924.58
362.58 K, 10000 kPa	1014.86
362.58 K, 20000 kPa	1102.88
362.58 K, 40000 kPa	1197.86
362.58 K, 60000 kPa	1258.31
362.58 K, 80000 kPa	1303.78
